Read-outs that look alike come from different tables or passages of the source. Ends that are not written are not given here.

One assay has as its system ACE. Also noted: method as in 2 sources, one per row (each row's own in cited_ref): ref 27 = [27]; PMID 29533693; doi:10.1080/10408398.2018.1452182; 27. Yathisha U.G. Bhat I. Karunasagar I. Mamatha B.S. Antihypertensive Activity of Fish Protein Hydrolysates and Its Peptides Crit. Rev. Food Sci. Nutr. 2019 59 2363 2374 10.1080/10408398.2018.1452182 ||| ref 28 = [28]; PMID 31671730; doi:10.3390/md17110613; 28. Abachi S. Bazinet L. Beaulieu L. Antihypertensive and Angiotensin-i-Converting Enzyme (ACE)-Inhibitory Peptides from Fish as Potential Cardioprotective Compounds Mar. Drugs 2019 17 613 10.3390/md1. The following applies: cited from earlier work.

Assay [1] concerns the target α-glucosidase (Saccharomyces cerevisiae, UniProt P53341). The assay is described as follows: biochemical.
Protocol: The α-glucosidase inhibitory activity was evaluated through the following method, outlined by Vilas-Boas et al. [42]. The assay was performed in a 96-well microplate (Stansted) and incubated at 25 °C for 5 min, and the absorbance was monitored at 405 nm with a microplate reader (Synergy H1, BioTek Instruments, Winooski, VT, USA). A negative control was performed, with 50 μL of a buffer solution that replaced the peptides. […] Each sample and control analysis was triplicated. The inhibition of α-glucosidase was quantified as the concentration required to inhibit 50% of the enzymatic activity (IC50). The IC50 values were determined using non-linear modelling of the data obtained.
Assay [2] concerns the target α-glucosidase. Also noted: method as in PMID 34445765. The following applies: peptides hydrolyzed from food sources; cited from earlier work. Here is the method:
The peptides were tested for antidiabetic activity based on the capacity to inhibit 50% of […].

The conditions of assay [3]: ark shell (Scapharca subcrenata) peptides, values converted to the same units; cited from earlier work. The text has this: In the ORAC assay, the values were 0.334 µmol TE/µmol of peptide for P1 and ...
Details of assay [4]: method as in 2 sources, one per row (each row's own in cited_ref): ref 19 = [19]; doi:10.1016/j.procbio.2018.06.001; 19. Jin J. Ahn C. Je J. Puri Fi Cation and Characterization of Antioxidant Peptides from Enzymatically Hydrolyzed Ark Shell ( Scapharca subcrenata ) Process Biochem. 2018 72 170 176 10.1016/j.procbio. ||| ref 21 = [21]; PMID 26304349; doi:10.1016/j.foodchem.2015.07.015; 21. Zheng L. Zhao M. Xiao C. Zhao Q. Su G. Practical Problems When Using ABTS Assay to Assess the Radical-Scavenging Activity of Peptides: Importance of Controlling Reaction PH and Time Food Chem. 201. The following applies: cited from earlier work; for ABTS antioxidant activity: ark shell (Scapharca subcrenata) peptides, values converted to the same units.

[5] abbreviates: peptides from fish protein hydrolysates.

Chain of α-glucosidase (Saccharomyces cerevisiae, UniProt P53341) (P53341 whole entry): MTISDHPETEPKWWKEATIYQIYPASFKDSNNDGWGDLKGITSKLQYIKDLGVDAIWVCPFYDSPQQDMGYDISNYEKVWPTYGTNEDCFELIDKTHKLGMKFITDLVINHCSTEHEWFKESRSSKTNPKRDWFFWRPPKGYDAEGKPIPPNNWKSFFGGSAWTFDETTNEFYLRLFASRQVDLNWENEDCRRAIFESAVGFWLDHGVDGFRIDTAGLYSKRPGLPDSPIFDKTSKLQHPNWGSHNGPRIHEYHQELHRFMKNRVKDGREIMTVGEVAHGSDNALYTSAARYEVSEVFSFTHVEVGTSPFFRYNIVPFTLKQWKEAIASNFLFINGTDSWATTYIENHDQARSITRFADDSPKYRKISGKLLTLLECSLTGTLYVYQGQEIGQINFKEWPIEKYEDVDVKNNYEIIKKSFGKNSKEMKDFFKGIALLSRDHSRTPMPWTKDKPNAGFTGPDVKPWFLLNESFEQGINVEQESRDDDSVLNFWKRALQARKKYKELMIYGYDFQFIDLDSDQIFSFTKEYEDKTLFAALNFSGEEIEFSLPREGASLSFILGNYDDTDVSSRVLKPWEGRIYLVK

“HWTTQR [peptide from Syngnathus schlegeli protein hydrolysate]”: the “ACE inhibition IC50” value with ACE (setting [5]) is given as 1440 µg/mL.
As for “TFPHGP [peptide from Syngnathus schlegeli protein hydrolysate]”, the “ACE inhibition IC50” value in the assay with ACE (setting [5]) is on record as 600 µg/mL.
As to PAPPPPPP [HdPPP], the half-inhibitory concentration (IC50) is 2.21 mM against α-glucosidase [1] (α-glucosidase IC50, 25 °C, 5 min, absorbance 405 nm, mean ± standard deviation, n = 3) and 2.21 mM against α-glucosidase [1] (α-glucosidase IC50, same result in molar units).
Turning to IKPLNY, the “ACE inhibition IC50” value in the assay on ACE (synthesized peptide before/after fragmentation in digestion) is listed as 32 µg/mL.
Take TPSPR: the half-maximal inhibitory concentration (IC50) on α-glucosidase [2] was 40 µM.
Consider HPLDSLCL [P2], for which the ORAC antioxidant activity in assay [3] is 0.239 µmol TE/µmol of peptide. The ABTS antioxidant activity in assay [4] was 0.005 µmol TE/µmol of peptide.
Consider RVPSLM, for which the concentration for half-maximal inhibition (IC50) at α-glucosidase [2] is 23.1 µM.
On to `N[C@@H](Cc1ccc(O)cc1)C(=O)O` [Tyr], for which the entries for the “ABTS radical scavenging value” in assay [4] (pH 6.0) and in assay [4] (pH 8.0) were 2.89 µmol TE/µmol and 6.55 µmol TE/µmol, respectively.
For the compound MCLDSCLL [P1], in assay [3], the ORAC antioxidant activity was 0.334 µmol TE/µmol of peptide. For the same compound, the ABTS antioxidant activity in assay [4] is listed as 0.678 µmol Trolox equivalents (TE)/µmol of peptide.

By IC50 is commonly meant the concentration needed to halve the response being measured.

Values taken from paper PMC11857211, “Bioprospecting Bioactive Peptides in Halobatrachus didactylus Body Mucus: From In Silico Insights to Essential In Vitro Validation” (Marine Drugs, 2025).
